Test results as given in patent publication US20250281472A1, “OPHTHALMIC COMPOSITION INHIBITING OCCURRENCE OF N-OXOPYRIDINE COMPOUND FOR PREVENTING OR TREATING EYE DISEASE” (Samjin Pharmaceutical Co., Ltd., priority 2021, published 2025).

Assay: Long-term storage of the active ingredient as a liquid eye drop (impurity formation)
Format: physicochemical
Excerpt: The present invention is to provide a composition capable of providing an eye drop treatment for various eye diseases. For this purpose, the composition has the essential condition of securing the stability of the active ingredient in a liquid state as an eye drop for about six months or more. […] And as a result of confirming a structure of the corresponding impurity, it was confirmed that the impurity is 3-phenyl-4-propyl-1-(N-oxopyridin-2-yl)-1H-pyrazol-5-ol (hereinafter, N-oxopyridine compound), in which an N-oxide structure is formed in a pyridine structure of the active ingredient. If the pH condition is adjusted to a neutral region where the active ingredient is stable, most impurities are controlled to be within about 0.5%. However, it was confirmed that the N-oxopyridine compound drastically increases to a level exceeding about 30% with a decrease in the active ingredient content even when the pH is controlled.

level of N-oxopyridine compound (liquid eye drop stored about six months or more, long-term storage condition, pH controlled to neutral region): exceeding 30% | most impurities (other than N-oxopyridine compound) (liquid eye drop, pH adjusted to a neutral region): ≤ 0.5%
Structure (SMILES): CCCc1c(-c2ccccc2)nn(-c2ccccn2)c1O [3-phenyl-4-propyl-1-(pyridin-2-yl)-1H-pyrazol-5-ol]
